In ChEMBL document CHEMBL4706519, “Evaluation of N-phenyl-2-aminothiazoles for treatment of multi-drug resistant and intracellular Staphylococcus aureus infections” (Eur J Med Chem, 2020):
≈ marks a conversion by molar mass, not a printed value.

Legend:
[1] = tested on: Staphylococcus aureus; assay: Antibacterial activity against methicillin-resistant Staphylococcus aureus USA300 NRS384 assessed as inhibition of bacterial growth measured after 18 to 20 hrs by broth microdilution method; format: functional; conditions: time 18-20 hrs
[2] = tested on: Escherichia coli; assay: Antibacterial activity against Escherichia coli JW55031 harboring toIC efflux mutant assessed as inhibition of bacterial growth measured after 18 to 20 hrs by broth microdilution method; format: functional; conditions: time 18-20 hrs
[3] = tested on: Escherichia coli; assay: Antibacterial activity against wild type Escherichia coli BW25113 assessed as inhibition of bacterial growth measured after 18 to 20 hrs by broth microdilution method; format: functional; conditions: time 18-20 hrs
[4] = tested on: Streptococcus pneumoniae; assay: Ratio of MBC to MIC for cephalosporin-resistant Streptococcus pneumoniae ATCC 51916 assessed as inhibition of bacterial growth measured after 18 to 20 hrs by CLSI protocol based broth microdilution method; format: functional; conditions: time 18-20 hrs
[5] = tested on: Listeria monocytogenes; assay: Ratio of MBC to MIC for Listeria monocytogenes ATCC 19111 assessed as inhibition of bacterial growth measured after 18 to 20 hrs by CLSI protocol based broth microdilution method; format: functional; conditions: time 18-20 hrs
[6] = tested on: Enterococcus faecium; assay: Ratio of MBC to MIC for vancomycin-resistant Enterococcus faecium ATCC 700221 assessed as inhibition of bacterial growth measured after 18 to 20 hrs by CLSI protocol based broth microdilution method; format: functional; conditions: time 18-20 hrs
[7] = tested on: Enterococcus faecalis; assay: Ratio of MBC to MIC for vancomycin-resistant Enterococcus faecalis ATCC 51299 assessed as inhibition of bacterial growth measured after 18 to 20 hrs by CLSI protocol based broth microdilution method; format: functional; conditions: time 18-20 hrs
[8] = tested on: Staphylococcus aureus; assay: Ratio of MBC to MIC against methicillin-sensitive Staphylococcus aureus ATCC 6538 assessed as inhibition of bacterial growth measured after 18 to 20 hrs by CLSI broth microdilution method; format: functional; conditions: time 18-20 hrs
[9] = tested on: Staphylococcus aureus; assay: Antibacterial activity against vancomycin-resistant Staphylococcus aureus 10 assessed as inhibition of bacterial growth measured after 18 to 20 hrs by CLSI protocol based broth microdilution method; format: functional; conditions: time 18-20 hrs
[10] = tested on: Staphylococcus epidermidis; assay: Ratio of MBC to MIC for methicillin-resistant Staphylococcus epidermidis NRS101 assessed as inhibition of bacterial growth measured after 18 to 20 hrs by CLSI protocol based broth microdilution method; format: functional; conditions: time 18-20 hrs
[11] = tested on: Staphylococcus aureus; assay: Antibacterial activity against vancomycin-resistant Staphylococcus aureus 12 assessed as inhibition of bacterial growth measured after 18 to 20 hrs by CLSI protocol based broth microdilution method; format: functional; conditions: time 18-20 hrs
[12] = tested on: Staphylococcus epidermidis; assay: Antibacterial activity against methicillin-resistant Staphylococcus epidermidis NRS101 assessed as inhibition of bacterial growth measured after 18 to 20 hrs by CLSI protocol based broth microdilution method; format: functional; conditions: time 18-20 hrs
[13] = tested on: Enterococcus faecium; assay: Antibacterial activity against vancomycin-resistant Enterococcus faecium ATCC 700221 assessed as inhibition of bacterial growth measured after 18 to 20 hrs by CLSI protocol based broth microdilution method; format: functional; conditions: time 18-20 hrs
[14] = tested on: Listeria monocytogenes; assay: Antibacterial activity against Listeria monocytogenes ATCC 19111 assessed as inhibition of bacterial growth measured after 18 to 20 hrs by CLSI protocol based broth microdilution method; format: functional; conditions: time 18-20 hrs
[15] = tested on: Streptococcus pneumoniae; assay: Antibacterial activity against cephalosporin-resistant Streptococcus pneumoniae ATCC 51916 assessed as inhibition of bacterial growth measured after 18 to 20 hrs by CLSI protocol based broth microdilution method; format: functional; conditions: time 18-20 hrs
[16] = tested on: Streptococcus pneumoniae; assay: Antibacterial activity against methicillin-resistant Streptococcus pneumoniae ATCC 700677 assessed as inhibition of bacterial growth measured after 18 to 20 hrs by CLSI protocol based broth microdilution method; format: functional; conditions: time 18-20 hrs
[17] = tested on: Staphylococcus aureus; assay: Ratio of MBC to MIC against methicillin-sensitive Staphylococcus aureus NRS107 assessed as inhibition of bacterial growth measured after 18 to 20 hrs by CLSI protocol based broth microdilution method; format: functional; conditions: time 18-20 hrs
[18] = tested on: Staphylococcus aureus; assay: Bactericidal activity against methicillin-resistant Staphylococcus aureus USA400 NRS123 assessed as log reduction in viable bacteria count at 5 times MIC incubated for 2 hrs in soy broth followed by incubation for 18 to 20 hrs on agar plate by time kill assay; format: functional; conditions: time 20-22 hrs
[19] = tested on: Staphylococcus aureus; assay: Bactericidal activity against methicillin-resistant Staphylococcus aureus USA400 NRS123 assessed as post-antibiotic effect at 5 times MIC incubated for 2 hrs followed by compound wash-out by viable plate count method; format: functional
[20] = Cytotoxicity against human Caco-2 cells assessed as cell viability at 32 ug/ml incubated for 2 hrs by MTS assay relative to control; format: cell-based; conditions: at 32 µg/mL, read-out: Activity
[21] = Selectivity index, ratio of maximum non-toxic concentration for human Caco-2 cells to MIC for methicillin-resistant Staphylococcus aureus USA500 NRS385; format: toxicity
[22] = Selectivity index, ratio of maximum non-toxic concentration for human Caco-2 cells to MIC for methicillin-resistant Staphylococcus aureus USA400 NRS123; format: toxicity
[23] = Selectivity index, ratio of maximum non-toxic concentration for human Caco-2 cells to MIC for methicillin-resistant Staphylococcus aureus NRS119; format: toxicity
[24] = Selectivity index, ratio of maximum non-toxic concentration for human Caco-2 cells to MIC for methicillin-resistant Staphylococcus aureus USA300 NRS384; format: toxicity
[25] = Cytotoxicity against mouse J774 cells assessed as cell viability at 16 ug/ml incubated for 2 hrs by MTS assay relative to control; format: cell-based; conditions: at 16 µg/mL, read-out: Activity
[26] = tested on: Staphylococcus aureus; assay: Antibacterial activity against methicillin-resistant Staphylococcus aureus USA400 NRS123 infected in mouse J774 cells assessed as reduction in intracellular bacterial burden at 2 x MIC measured after 24 hrs relative to control; format: functional
[27] = tested on: Staphylococcus aureus; assay: Antibacterial activity against methicillin-resistant Staphylococcus aureus USA400 NRS123 infected in mouse J774 cells assessed as reduction in intracellular bacterial burden at 4 x MIC measured after 24 hrs relative to control; format: functional
[28] = tested on: Streptococcus pneumoniae; assay: Ratio of MBC to MIC for methicillin-resistant Streptococcus pneumoniae ATCC 700677 assessed as inhibition of bacterial growth measured after 18 to 20 hrs by CLSI protocol based broth microdilution method; format: functional; conditions: time 18-20 hrs
[29] = tested on: Staphylococcus aureus; assay: Bactericidal activity against methicillin-resistant Staphylococcus aureus USA400 NRS123 assessed as eradication of bacterial count at 5 times MIC incubated for 8 hrs in soy broth followed by incubation for 18 to 20 hrs on agar plate by time kill assay; format: functional; conditions: time 26-28 hrs
[30] = Selectivity index, ratio of maximum non-toxic concentration for human Caco-2 cells to MIC for methicillin-resistant Staphylococcus aureus USA700 NRS386; format: toxicity
[31] = Cytotoxicity against mouse J774 cells assessed as cell viability at 32 ug/ml incubated for 2 hrs by MTS assay; format: cell-based; conditions: J774 cells, at 32 µg/mL, read-out: Activity
[32] = tested on: Staphylococcus aureus; assay: Antibacterial activity against methicillin-resistant Staphylococcus aureus USA400 NRS123 infected in mouse J774 cells assessed as log reduction in intracellular bacterial burden at 2 x MIC measured after 24 hrs; format: functional
[33] = tested on: Staphylococcus aureus; assay: Antibacterial activity against methicillin-resistant Staphylococcus aureus USA400 NRS123 infected in mouse J774 cells assessed as log reduction in intracellular bacterial burden at 4 x MIC measured after 24 hrs; format: functional
[34] = tested on: Staphylococcus aureus; assay: Ratio of MIC for methicillin-resistant Staphylococcus aureus USA400 NRS123 measured after 5th passage to MIC for methicillin-resistant Staphylococcus aureus USA400 NRS123 measured after 18 to 20 hrs by broth microdilution assay; format: functional
[35] = tested on: Staphylococcus aureus; assay: Ratio of MIC for methicillin-resistant Staphylococcus aureus USA400 NRS123 measured after 11th passage to MIC for methicillin-resistant Staphylococcus aureus USA400 NRS123 measured after 18 to 20 hrs by broth microdilution assay; format: functional
[36] = tested on: Staphylococcus aureus; assay: microbe, parasite or virus in culture; conditions: ATCC 6538
[37] = tested on: Staphylococcus aureus; assay: microbe, parasite or virus in culture; conditions: NRS107
[38] = tested on: Staphylococcus aureus; assay: microbe, parasite or virus in culture; conditions: NRS119
[39] = tested on: Staphylococcus aureus; assay: microbe, parasite or virus in culture; conditions: USA400 NRS123
[40] = tested on: Staphylococcus aureus; assay: microbe, parasite or virus in culture; conditions: USA500 NRS385
[41] = tested on: Staphylococcus aureus; assay: microbe, parasite or virus in culture; conditions: USA700 NRS386
[42] = tested on: Enterococcus faecalis; assay: microbe, parasite or virus in culture; conditions: ATCC 51299

C/C(=N\NC(=N)N)c1ccc(Nc2nc(-c3ccccc3)cs2)cc1
MIC [1]: 2 µg/mL (≈ 5.71 µM)
MIC [2]: 4 µg/mL (≈ 11.4 µM)
MIC [3]: 8 µg/mL (≈ 22.8 µM)
Ratio [4]: 1
Ratio [5]: 1
Ratio [6]: 1
Ratio [7]: 1
Ratio [8]: 1
MBC [9]: 2 µg/mL (≈ 5.71 µM)
MIC [9]: 2 µg/mL (≈ 5.71 µM)
Ratio [10]: 1
MBC [11]: 4 µg/mL (≈ 11.4 µM)
MIC [11]: 2 µg/mL (≈ 5.71 µM)
MBC [12]: 1 µg/mL (≈ 2.85 µM)
MIC [12]: 1 µg/mL (≈ 2.85 µM)
MBC [13]: 4 µg/mL (≈ 11.4 µM)
MIC [13]: 2 µg/mL (≈ 5.71 µM)
MBC [14]: 4 µg/mL (≈ 11.4 µM)
MIC [14]: 1 µg/mL (≈ 2.85 µM)
MBC [15]: 4 µg/mL (≈ 11.4 µM)
MIC [15]: 2 µg/mL (≈ 5.71 µM)
MBC [16]: 8 µg/mL (≈ 22.8 µM)
MIC [16]: 2 µg/mL (≈ 5.71 µM)
Ratio [17]: 1
Activity [18]: 3 log10CFU/ml
PAE [19]: 2 h
viability at 2 h, 32 ug/ml [20]: 100%
selectivity ratio [21]: 16
selectivity ratio [22]: 16
selectivity ratio [23]: 16
selectivity ratio [24]: 16
viability at 2 h, 16 ug/ml [25]: 100%
inhibition (INH) [26]: 88%
inhibition (INH) [27]: 93%
Ratio [28]: 1
Activity [29]: 100%
selectivity ratio [30]: 16
viability at 2 h, 32 ug/ml [31]: 100%
Activity [32]: 1.07 log10CFU/ml
Activity [33]: 1.19 log10CFU/ml
Ratio [34]: 1
Ratio [35]: 3
MBC [36]: 2 µg/mL (≈ 5.71 µM)
MIC [36]: 2 µg/mL (≈ 5.71 µM)
MBC [37]: 4 µg/mL (≈ 11.4 µM)
MIC [37]: 1 µg/mL (≈ 2.85 µM)
MBC [38]: 4 µg/mL (≈ 11.4 µM)
MIC [38]: 2 µg/mL (≈ 5.71 µM)
MBC [39]: 2 µg/mL (≈ 5.71 µM)
MIC [39]: 2 µg/mL (≈ 5.71 µM)
MBC [40]: 2 µg/mL (≈ 5.71 µM)
MIC [40]: 2 µg/mL (≈ 5.71 µM)
MBC [41]: 8 µg/mL (≈ 22.8 µM)
MIC [41]: 2 µg/mL (≈ 5.71 µM)
MBC [42]: 4 µg/mL (≈ 11.4 µM)
MIC [42]: 2 µg/mL (≈ 5.71 µM)
